Measurements reported in PubChem BioAssay AID1981 (Southern Research Specialized Biocontainment Screening …, 2009).

Test system: S. Typhimurium PhoP-promoter GFP reporter counterscreen, fluorescence, 4 h
Experiment: S. Typhimurium GFP fluorescence dose response in modified counterscreen for PhoP regulon inhibitor project (AID 1981)

| Compound | IC50 [µM] |
| --- | --- |
| NCC12CC3CC(C1)CC(c1ccc(Br)cc1)(C3)C2 | 55.2 |
| CC(=O)NC(c1ccc(C)cc1)c1cc([N+](=O)[O-])c2cccnc2c1O (stereo unspecified) | 37.9 |
| C[CH2][Hg][S]c1ccccc1C(=O)O | 28.1 |
| Nc1ccc2c(c1)C(=O)C(=O)c1ccccc1-2 | 10.9 |
| NC1CCN(c2c(F)cc3c(=O)c(C(=O)O)cn(C4CC4)c3c2Cl)C1 (stereo unspecified) | < 0.23 |
| O=C(N/N=C/c1cc([N+](=O)[O-])ccc1O)C1CC1 | 45.2 |
| Oc1c(C(Nc2cccc(C(F)(F)F)c2)c2cccnc2)ccc2cccnc12 (stereo unspecified) | 56.2 |
| CN1CCN(C(c2ccccn2)c2cc(Cl)c3cccnc3c2O)CC1 (stereo unspecified) | 67.3 |
| Cc1cc(C)c(NC(=O)c2cn3c4c(c(N5CCN(C)CC5)c(F)cc4c2=O)OCC3C)c(C)c1 (stereo unspecified) | 35.1 |
| Nc1nc2ccccc2n1CCOc1ccccc1Cl | 104 |
| COc1ccc(OCc2n(CC(=O)OC3CC(C)CCC3C(C)C)c3ccccc3[n+]2C)cc1 (stereo unspecified) | 113 |
| O=C1OC(/C(=C\Nc2ccc(F)cc2F)[N+](=O)[O-])c2ccccc21 (stereo unspecified) | 18.2 |
| CC[C@H]1OC(=O)C[C@@H](O)[C@H](C)[C@@H](O[C@@H]2O[C@H](C)C[C@H](N(C)C)[C@H]2O)[C@@H](CC=O)C[C@@H](C)C(=O)C=C[C@]2(C)O[C@H]2[C@@H]1C | 10.2 |
| CCN(CC)S(=O)(=O)c1cccc(C(=O)N/N=C/c2ccc(O)c(O)c2O)c1 | 78.9 |
| CCCCCCCCCCCCCCCC[N+](C)(C)CC | 24.9 |
| CCCCOc1ccc(CSC(=N)N)cc1[N+](=O)[O-] | 131 |
| O=C(N/N=C/c1coc2ccc(Cl)cc2c1=O)c1cc(O)cc(O)c1 | 137 |
| Clc1ccc(CN2CCC(c3nc4ccc(Cl)cc4[nH]3)CC2)cc1 | 51.7 |
| CNC[C@H](Cc1ccccc1)NC[C@@H](Cc1cccc2ccccc12)NCCc1ccc(C)cc1 | 29.9 |
| O=C(N/N=C/c1c[nH]c2ccccc12)c1cc(-c2ccc3ccccc3c2)n[nH]1 | 68.6 |
| CC[n+]1c(/C=C/c2ccc(N(C)C)cc2)ccc2ccccc21 | 91.2 |

| Compound | IC50 [µM] |
| --- | --- |
| OCc1ccc(O)c2ncccc12 | 146 |
| Nc1nonc1C(=O)N/N=C/c1cc(Br)ccc1O | 13 |
| Oc1c(CN2CCCCC2)cc(COCc2ccccc2)c2cccnc12 | 85.6 |
| C#CCOCCOCCOCCNc1nc(N2CCN(C(=O)CCCCCCCCCCNC(=O)[C@H](CO)n3cc(CCCCCN)nn3)CC2)nc(N2CCN(C(=O)CCCCCCCCCCNC(=O)[C@H](CCCN=C(N)N)n3cc(C[C@@H](C)CC)nn3)CC2)n1 | 90.3 |
| CCOc1cccc(CNc2ccc(O)cc2)c1OCc1ccc(Cl)cc1Cl | 125 |
| O=C(Nc1nc(-c2ccccn2)cs1)c1ccc(Cl)s1 | 27.8 |
| Fc1ccc(CCNCc2ccc(Cl)c(Cl)c2)cc1 | 109 |
| CCn1cc(C(=O)O)c(=O)c2cc(F)c(N3CCN(C(=S)Nc4ccc(OC)cc4)CC3)cc21 | 7.49 |
| CCn1cc(C(=O)O)c(=O)c2cc(F)c(N3CCN(C(=S)NC(=O)c4ccc(OC)cc4)CC3)cc21 | 13.4 |
| C[C@H]1O[C@@H](n2cc(F)c(=O)[nH]c2=O)[C@H](O)[C@@H]1O | 11.8 |
| CN(O)/C=c1/ccc2c(n1)C(=O)C=CC=2 | 54.1 |
| NCCc1c(-c2ccccc2)n(-c2ccccc2)c2ccccc12 | 83.7 |
| O=CN/N=C/c1c(O)ccc2ccccc12 | 59.6 |
| Cc1ccccc1OCc1n(CC(=O)OC2CC(C)CCC2C(C)C)c2ccccc2[n+]1C (stereo unspecified) | 80.1 |
| CC1CCc2c(N3CCC(O)CC3)c(F)cc3c(=O)c(C(=O)O)cn1c23 (stereo unspecified) | 6.56 |
| CCCCCCCCCCCCCCCC[n+]1cccc(C(=O)N(CC)CC)c1 | 29.6 |
| Cc1cccc(Nc2nc(NCc3ccco3)c3ccccc3n2)c1 | 37.9 |
| CCOC(=O)N1CCN(C(=O)c2cn(CC)c3cc(N4CCN(C)CC4)c(F)cc3c2=O)CC1 | 8.51 |
| O=c1[nH]cc(F)c(=O)[nH]1 | 4.17 |
| CCn1cc(C(=O)O)c(=O)c2cc(F)c(N3CCN(C(=S)NC(=O)c4ccccc4)CC3)cc21 | 13.8 |
| O=Nc1ccc(O)c2ncccc12 | 41.4 |

| Compound | IC50 [µM] |
| --- | --- |
| CN(C)C1C(=O)C(C(N)=O)=C(O)C2(O)C(=O)C3=C(O)c4c(O)cccc4C(C)(O)C3CC12 (stereo unspecified) | 0.67 |
| O=C(Cn1nc(CNc2ccc(Cl)cc2)[n+]2c1CCCCC2)c1ccc(Br)cc1 | 88.2 |
| O=C(N/N=C/c1cc(Cl)ccc1O)c1ccncc1 | 31.2 |
| Cc1cc2nc3ccc(=[N+](C)C)cc-3sc2cc1N | 32.4 |
| O=C(N/N=C/c1cc2c3c(c1O)CCCN3CCC2)c1ccccc1O | 135 |
| CCCCCCCCCCCCCCCC[N+](C)(C)C | 37.9 |
| CCn1nc(C(=O)O)c(=O)c2cc3c(cc21)OCO3 | 52.1 |
| C=CCNc1ncnc2c1[nH]c1ccccc12 | 106 |
| Nc1ncncc1-c1ccc([N+](=O)[O-])cc1 | 136 |
| Nc1nnc(-c2cccc(Cl)c2Cl)c(N)n1 | 66.4 |
| CCOC(=O)C1=Nc2ccccc2C1=[N+]=[N-] | 50 |
| Cc1ccccc1Nc1cc(C)c2c(O)cccc2n1 | 88.2 |
| Cc1nc(N)c(Cc2ccc(Cl)cc2Cl)c(N)n1 | 86.9 |
| CCCCCCCCCCCCCCCC[n+]1ccc(/C=N/O)cc1 | 30.6 |
| Cc1cc(/C=N/n2c(COc3ccccc3)nc3ccccc3c2=O)c(O)c([N+](=O)[O-])c1 | 61.4 |
| COc1cccc(Nc2nc(NCC3CCCO3)c3ccccc3n2)c1 (stereo unspecified) | 102 |
| c1ccc2c(NC3=NCCS3)cccc2c1 | 112 |
| Oc1cccc(/C=N/NC(=S)Nc2cccnc2)c1O | 28.7 |
| Cc1cc(C(=O)N/N=C/c2cc(Br)cc([N+](=O)[O-])c2O)c2ccccc2n1 | 93.5 |
| CCn1cc(C(=O)O)c(=O)c2cc(F)c(N3CCN(C(=S)NC(=O)c4cccc(F)c4)CC3)cc21 | 35.1 |
| COc1c(N2CCNC(C)C2)c(F)cc2c(=O)c(C(=O)O)cn(C3CC3)c12 (stereo unspecified) | 0.44 |

| Compound | IC50 [µM] |
| --- | --- |
| Cc1nc(N)nc(N)c1/C=C/C(C)(C)c1ccc(Cl)cc1 | 12.9 |
| CC[n+]1c(/C=C/C=C/c2ccc(N(C)C)cc2)sc2ccccc21 | 74 |
| CCc1ccc(CNc2ccc(O)cc2)cc1 | 94.9 |
| O=C(N/N=C\C=C\c1ccc([N+](=O)[O-])o1)c1cccs1 | 34.8 |
| C=CC1=C(C(=O)O)N2C(=O)[C@@H](NC(=O)/C(=N\O)c3csc(N)n3)[C@H]2SC1 (stereo in doubt) | 33.8 |
| COc1cccc(/C=N/Nc2ncc(C(F)(F)F)cc2Cl)c1O | 34.7 |
| Nc1nc(F)nc2c1ncn2[C@@H]1O[C@H](CO)[C@@H](O)[C@H]1O | 18.3 |
| Cc1cc(C(C)(C)CC(C)(C)C)ccc1OCCOCC[N+](C)(C)Cc1ccccc1 | 34.6 |
| Oc1ccc(CN2CCCc3ccccc32)c2cccnc12 | 20 |
| COc1cnc(-c2ccccn2)[nH]c1=O | 45.7 |
| CCCCCCOC(=O)C[N+](C)(C)CCOC1CC2CCC1(C)C2(C)C (stereo unspecified) | 71.2 |
| ON=C1/C(=N\O)CC2(C/C1=N/O)OCCO2 | 125 |
| CCc1ccc(-c2nn(-c3ccccc3)cc2CSC(=N)N)cc1 | 40.4 |
| Cc1nc(NC(=O)c2ccccc2)sc1-c1csc(Nc2ccc(F)cc2)n1 | 86.4 |
| CCCCCC(CC(=O)NO)C(=O)NC(C(=O)N1CCCC1CO)C(C)C (stereo unspecified) | 33.3 |
| CCCNC(=O)c1cn(CC)c2cc(N3CCN(C)CC3)c(F)cc2c1=O | 40.5 |
| C/C(=C\C(=O)OCCCCCCCCC(=O)O)C[C@@H]1OC[C@H](C[C@@H]2O[C@H]2[C@@H](C)[C@H](C)O)[C@@H](O)[C@H]1O | 14.1 |
| O=C(c1cccs1)c1no[n+]([O-])c1C(=O)c1cccs1 | 13 |
